# Patent US20240269238A1, “Therapeutic Regimens and Methods for Reducing Body Weight in a Subject with Fatty Liver Disease using a GLP-1R and GCGR Agonist” (Spitfire Pharma LLC, priority 2022, published 2024)
# What was measured:
# [1] = Phase 1 12-week study in overweight/obese subjects (NCT0456124, Example 2): key pharmacodynamic endpoints; assay type: in vivo, human
# Description: To test the lipid-lowering effects of pemvidutide, an analysis of Phase I clinical trial (NCT0456124) data was carried out. The subjects with overweight/obesity (BMI 25-40 kg/m^2) were randomized at 1 site in Australia (NCT0456124). Subjects were randomized 4:1 pemvidutide:placebo, with placebos pooled. […] Lipoprotein and glycoprotein profiling covering 33 lipoprotein related parameters was performed by ^1H-NMR on fasting plasma samples obtained at Day −1 (baseline), Day 43, and Day 84 from the 34 subjects who completed NCT0456124. Lipidomic profiling covering 600 lipid species was performed by ultra-high performance liquid chromatography-mass spectrometry on fasting plasma samples obtained at Day −1 (baseline), Day 43, and Day 84 from the 34 subjects who completed NCT0456124. For the lipid profiling, plasma fractionation was performed either using methanol to extract fatty acyls, bile acids, steroids, and lyso-glycerophospholipids, or using a chloroform/methanol mix to extract glycerolipids, cholesteryl esters, sphingolipids, and glycerophospholipids. Lipid classification followed the classification system proposed by Fahy et al. (J. Lipid Res. 2005; 46:839-861) and the LIPID MAPS initiative (http://www.lipidmaps.org) (see FIG. 8).
# liver fat content = assay: Phase 1b 24-week NAFLD study (Example 3): liver fat content and liver volume by MRI-PDFF; assay type: in vivo, human
# From the text: Provided herein is disclosure of a 12-week extension study of the study provided in Example 1, providing a 24-week a Phase 1b, randomized, double-blind, placebo-controlled study to assess the effects of pemvidutide (also termed herein as ALT-801), the safety of pemvidutide and effects on weight loss, hepatic fat fraction, anthropometric parameters, lipid metabolism, as well as inflammatory, fibrosis and other markers in diabetic and non-diabetic (type 2 diabetes) overweight and obese (BMI≥28.0 kg/m^2) subjects with NAFLD (defined as liver fat content (LFC) by MRI-PDFF ≥10%; absence of significant fibrosis, defined as FibroScan® LSM ≤10 kPa), alanine aminotransferase (ALT) and aspartate aminotransferase (AST) laboratory values of ≤75 IU/L and HbA1c <9.5. Men and women aged 18-65 years were studied. Diabetic subjects were defined as those that have undergone stable dose (≥3 months) metformin or SLGT-2 therapy and no use of insulin, sulfonylureas, DPP-4, GLP-1 treatment; Ninety-four (94) subjects were enrolled in the initial 12-week Phase 1b NAFLD trial and 83 subjects who completed were invited to receive a total of 12 additional weeks of blinded treatment. Of those subjects, 66 consented to rollover, of which 64 were eligible to participate.
# The primary endpoint of this study was a reduction in liver fat content (LFC) by MRI-PDFF at Week 24 compared to Week 0 (zero). Key secondary endpoints include percent (%) weight loss at Week 24 compared to Week 0 (zero), and liver inflammation by alanine aminotransferase (ALT) levels and corrected T1 (cT1) imaging at Week 24 as compared to Week 0 (zero). Adverse events (AEs), including serious and severe AEs, AEs leading to discontinuation, GI tolerability, vital signs, and glycemic control including fasting glucose and HbA1c levels were also measured.
compound,measurement,setting,value
"CC[C@H](C)[C@H](NC(=O)[C@H](Cc1ccccc1)NC(=O)[C@H](CCC(=O)O)NC(=O)[C@@H]1CCCCNC(=O)CC[C@H](NC(=O)[C@H](CC(=O)O)NC(=O)[C@H](CC(C)C)NC(=O)[C@H](Cc2ccc(O)cc2)NC(=O)[C@H](CCCCN)NC(=O)[C@H](CO)NC(=O)[C@H](Cc2ccc(O)cc2)NC(=O)[C@H](CC(=O)O)NC(=O)[C@H](CO)NC(=O)[C@@H](NC(=O)[C@H](Cc2ccccc2)NC(=O)[C@@H](NC(=O)CNC(=O)[C@H](CCC(N)=O)NC(=O)C(C)(C)NC(=O)[C@@H](N)Cc2c[nH]cn2)[C@@H](C)O)[C@H](C)O)C(=O)N[C@@H](CCCCNC(=O)C2O[C@@H](OCCCCCCCCCCCCCCCCCC(=O)O)C(O)C(O)[C@@H]2O)C(=O)N[C@@H](C)C(=O)N[C@@H](C)C(=O)N1)C(=O)N[C@@H](CCC(N)=O)C(=O)N[C@@H](Cc1c[nH]c2ccccc12)C(=O)N[C@@H](CC(C)C)C(=O)N[C@@H](CC(C)C)C(=O)N[C@@H](CCC(N)=O)C(=O)N[C@H](C(N)=O)[C@@H](C)O (stereo partly shown) [ALT-801, Pemvidutide]","Apoprotein B, change from baseline, mean","[1]; 1.2 mg weekly, 12 weeks",−45.4%
same,"BMI, change from baseline, mean","[1]; 1.2 mg weekly, 12 weeks",−4.8%
same,"Diastolic BP, change from baseline, mean","[1]; 1.2 mg weekly, 12 weeks",−4.7%
same,"HDL cholesterol, change from baseline, mean","[1]; 1.2 mg weekly, 12 weeks",−16.7%
same,"LDL cholesterol, change from baseline, mean","[1]; 1.2 mg weekly, 12 weeks",−18.4%
same,"Systolic BP, change from baseline, mean","[1]; 1.2 mg weekly, 12 weeks",−10.2%
same,"Total cholesterol, change from baseline, mean","[1]; 1.2 mg weekly, 12 weeks",−20.0%
same,"Triglycerides, change from baseline, mean","[1]; 1.2 mg weekly, 12 weeks",−37.0%
same,"Weight loss, change from baseline, mean","[1]; 1.2 mg weekly, 12 weeks (n = 7)",−4.9%
same,"mean body weight loss, placebo adjusted","[1]; 1.8 mg dose level, 12 weeks",8.7%
same,mean body weight loss,"[1]; 1.8 mg dose level, 12 weeks of weekly treatment",10.3%
same,subjects achieving at least 10% body weight loss,"[1]; 1.8 mg group, week 12",over half
same,subjects losing at least 5% of body weight,"[1]; 1.8 mg group, week 12",all subjects lost at least 5% of their body weight
same,"Apoprotein B, change from baseline, mean","[1]; 1.8 mg weekly, 12 weeks",−23.4%
same,"BMI, change from baseline, mean","[1]; 1.8 mg weekly, 12 weeks",−10.4%
same,"Diastolic BP, change from baseline, mean","[1]; 1.8 mg weekly, 12 weeks",−7.1%
same,"HDL cholesterol, change from baseline, mean","[1]; 1.8 mg weekly, 12 weeks",−30.3%
same,"LDL cholesterol, change from baseline, mean","[1]; 1.8 mg weekly, 12 weeks",−25.6%
same,"Systolic BP, change from baseline, mean","[1]; 1.8 mg weekly, 12 weeks",−12.5%
same,"Total cholesterol, change from baseline, mean","[1]; 1.8 mg weekly, 12 weeks",−28.0%
same,"Triglycerides, change from baseline, mean","[1]; 1.8 mg weekly, 12 weeks",−37.9%
same,"Weight loss, change from baseline, mean","[1]; 1.8 mg weekly, 12 weeks (n = 9)",−10.3%
same,"Apoprotein B, change from baseline, mean","[1]; 2.4 mg weekly, 12 weeks",−16.8%
same,"BMI, change from baseline, mean","[1]; 2.4 mg weekly, 12 weeks",−7.0%
same,"Diastolic BP, change from baseline, mean","[1]; 2.4 mg weekly, 12 weeks",−6.0%
same,"HDL cholesterol, change from baseline, mean","[1]; 2.4 mg weekly, 12 weeks",−36.0%
same,"LDL cholesterol, change from baseline, mean","[1]; 2.4 mg weekly, 12 weeks",−23.9%
same,"Systolic BP, change from baseline, mean","[1]; 2.4 mg weekly, 12 weeks",−17.4%
same,"Total cholesterol, change from baseline, mean","[1]; 2.4 mg weekly, 12 weeks",−27.7%
same,"Triglycerides, change from baseline, mean","[1]; 2.4 mg weekly, 12 weeks",−29.2%
same,"Weight loss, change from baseline, mean","[1]; 2.4 mg weekly, 12 weeks (n = 11)",−9.0%
same,mean absolute reduction in liver fat (MRI-PDFF),"liver fat content; 1.2 mg per week, week 24",11.2%
same,mean relative reduction in liver fat (MRI-PDFF),"liver fat content; 1.2 mg per week, week 24",56.3%
same,liver fat of an exemplary subject (MRI-PDFF),"liver fat content; 1.8 mg dose, Week 24, 32.3% at baseline",1.7%
same,mean absolute reduction in liver fat (MRI-PDFF),"liver fat content; 1.8 mg per week, week 24",17%
same,mean relative reduction in liver fat (MRI-PDFF),"liver fat content; 1.8 mg per week, week 24",75.2%
same,proportion of subjects with normalization (<=5%) in liver fat content,"liver fat content; 1.8 mg, week 24",53.8%
same,mean absolute reduction in liver fat (MRI-PDFF),"liver fat content; 2.4 mg per week, week 24",15.6%
same,mean relative reduction in liver fat (MRI-PDFF),"liver fat content; 2.4 mg per week, week 24",76.4%
same,proportion of subjects with normalization (<=5%) in liver fat content,"liver fat content; 2.4 mg, week 24",45.3%
same,relative liver fat reductions (study conclusion),liver fat content; 24 weeks,greater than 75%
same,liver volume (MRI-PDFF),"liver fat content; all doses, week 24",robust reduction in liver volume
same,percentage of subjects achieving at least 30% and 50% reduction in liver fat content vs placebo,"liver fat content; all doses, week 24",highly significant
